test: oral acute toxicity in the mouse (LD50); assay type: in vivo; details: 500 mg/kg
Protocol: The compounds of Examples 3, 67, 90, 107 and 114 are atoxic at the dose of 500 mg/kg in the mouse.

SMILES | atoxic at the dose of 500 mg/kg
CC(Nc1c(C(=O)c2ccccc2)cnc2cccnc12)C(=O)N(C)c1ccc(Cl)cc1 (stereo not drawn) [SR 26455] | atoxic
CN(C(=O)CCNc1c(C(=O)c2ccccc2)cnc2cccnc12)c1ccc(Cl)cc1 [SR 26731] | atoxic
CN(C(=O)CNc1c(C(=O)c2ccccc2)cnc2cccnc12)c1ccc(Cl)cc1Cl [SR 26972] | atoxic
COc1ccc(N(C)C(=O)CNc2c(C(=O)c3ccccc3)cnc3cc(Br)ccc23)cc1 [SR 27195] | atoxic

same assay, conditions: in vivo, oral route

SMILES | LD50 [mg/kg]
CCCN(CCC)C(=O)C(C)Nc1c(C(=O)OCC)cnc2cc(C(F)(F)F)ccc12 (stereo not drawn) [SR 26241, ethyl 4-[1-(N,N-dipropylcarbamoyl)ethylamino] 7-trifluoromethyl quinoline 3-carboxylate] | 1100
CN(C(=O)CNc1c(C(=O)c2ccccc2)cnc2cccnc12)c1ccc(Cl)cc1 [SR 26276] | > 1800

Reference: patent US5026711A, “4-amino quinolines and naphthyridines and their use as medicines” (priority 1988, dated 1991)
